The text below walks through data of patent US20220238900A1, “All Natural Redox Flow Battery Utilizing Indigo Carmine And Derivatives Thereof” (Northeastern University, priority 2019, published 2022).

As usually defined, the aqueous solubility is the dissolved amount per volume that the medium holds. Read a low aqueous solubility as little dissolved substance.

Series [1] can be described thus: Three-electrode half-cell cyclic voltammetry.
Experimental: Cyclic voltammetry experiments were performed using a Biologic SP150 potentiostat controlled by Biologic EC-Lab software.
The nature of series [2]: Rotating disk electrode linear sweep voltammetry (Levich and Tafel analysis). Type of series: physicochemical. The source says:
Further, the log (i0) can also be represented as FACOk0, where k0 is the electron transfer rate constant.

A short description of the next series: physchem. From the text:
FIG. 1A illustrates the natural source of the indigo dye. The most natural product from which indigo is obtained includes indican (genus indigofera plants) and isatan (woad plants or isatis tinctoria) in tropical and moderate climate zones, respectively.^[19] Irrespective of their source, the chemistry of the dye extraction involves soaking the leaves of the plants in water to facilitate the fermentation process, during which the indican readily undergoes enzymatic hydrolysis and releases indoxyl that converts to indigo by oxidation upon exposure to air. […] On the contrary, a high concentration of reactants in solution is the key to minimize the storage tank size while obtaining high specific volumetric energy density. Therefore, the design of an appropriate electrolyte for AORFB starts from identifying redox-active materials followed by optimization of the structure to achieve the maximum solubility to maximize the energy density. […] In IC-H, the substituted protons are attached to the strongly electronegative oxygen atoms and capable of forming strong hydrogen bondings. Hydrogen bondings are usually stronger than the Van Der Wall forces and dipole interactions.

Converted amounts (≈) assume the structure as drawn. “And” between values parts separate entries of the source, which are not always exact repeats. Identical values can stand only once.

In the case of `O=C1/C(=C2\Nc3ccc(S(=O)(=O)O)cc3C2=O)Nc2ccc(S(=O)(=O)O)cc21` [IC-H, 5,5′-indigodisulfonic acid], the “chemical stability on CV cycling” value in series [1] (10,000 cycles at 40 mV s^−1) was “negligible decay”. Further, the redox peak separation in series [1] (scan rates 5 mV s^−1 to 200 mV s^−1) turned out to be 40 mV. The “electron transfer (reaction) rate constant” value in series [2] (1 mM in 0.1 M HClO4, fitted Tafel plot) amounted to 0.000282 cm/s. In addition, the diffusion coefficient in series [2] (1 mM in 0.1 M HClO4, slope of Levich plot) was 2.232×10^−5 cm^2 s^−1 and 2.23×10^−5 cm^2 s^−1. In addition, the electron transfer rate constant k0 in series [2] (LSV data at 2700 rpm, Tafel plot) was determined as 0.000282 cm/s. In the series “physchem”, this molecule had an aqueous solubility of 760 mM (≈ 321 mg/mL) and an improvement in solubility of 22 folds.
On to `CC1(C)CCCC(C)(C)N1[O]` [TEMPO, 2,2,6,6-tetramethylpiperidine-1-oxyl, reference compound], for which, in series [1] (acidic medium (0.1 M HClO4 where stated)), the “redox potential (redox peaks)” value was “around 0.75 V vs. Ag/AgCl”.
